Laboratory results: ChEMBL document CHEMBL4130400, “Development of GLUT4-selective antagonists for multiple myeloma therapy” (Eur J Med Chem, 2017)
pIC50: −log10 of the molar value. Values belong to the compound of their own block, whether it stands above or below them. Activity calls are given as the source filed them. No cut-off for these calls is given here.

Experiments:
KMS-11 [1] = assay: Antiproliferative activity against human KMS11 cells over-expressing GFP after 72 hrs by CellTiter-Glo assay; assay type: functional, cell-based; settings: KMS-11, 72 h
[2] = target: T1, Solute carrier family 2, facilitated glucose transporter member 4 (Homo sapiens, UniProt P14672); assay: Antagonist activity at human GLUT4 expressed in HEK293 cells transfected with GLUT1 shRNA assessed as inhibition of [3H]2-deoxy-D-glucose uptake preincubated for 5 mins followed by [3H]2-deoxy-D-glucose addition and measured after 6 mins; assay type: cell-based
T1 sequence (P14672 whole entry): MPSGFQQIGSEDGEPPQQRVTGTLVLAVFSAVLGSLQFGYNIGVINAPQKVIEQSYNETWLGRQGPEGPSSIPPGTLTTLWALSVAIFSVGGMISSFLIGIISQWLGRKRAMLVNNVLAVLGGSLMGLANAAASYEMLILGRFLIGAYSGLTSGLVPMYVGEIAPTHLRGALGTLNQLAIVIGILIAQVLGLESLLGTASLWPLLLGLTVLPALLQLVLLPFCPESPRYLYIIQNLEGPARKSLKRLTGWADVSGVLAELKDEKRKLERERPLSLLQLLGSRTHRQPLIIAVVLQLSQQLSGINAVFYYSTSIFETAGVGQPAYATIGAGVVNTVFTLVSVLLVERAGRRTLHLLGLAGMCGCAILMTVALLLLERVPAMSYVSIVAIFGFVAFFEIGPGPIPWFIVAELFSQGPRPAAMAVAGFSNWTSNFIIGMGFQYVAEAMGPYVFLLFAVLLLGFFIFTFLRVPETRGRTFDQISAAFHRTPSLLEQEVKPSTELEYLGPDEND

KMS-11 [3] = assay: Cytotoxicity against human KMS11 cells after 72 hrs by AnnexinV/DAPI staining-based flow cytometric analysis; assay type: functional, cell-based
[4] = target: T2, Solute carrier family 2, facilitated glucose transporter member 4 (Homo sapiens) (UniProt P14672); assay: Antagonist activity at GLUT4 in human JJN3 cells assessed as reduction in [3H]2-deoxy-D-glucose uptake preincubated for 5 to 6 mins followed by [3H]2-deoxy-D-glucose addition measured after 4 to 6 mins; assay type: cell-based
T2 sequence (whole entry): T1 sequence (P14672 whole entry)

JJN-3 [5] = assay: Inhibition of [3H]2-deoxy-D-glucose uptake in human JJN-3 cells transfected with GLUT4 shRNA preincubated for 5 to 6 mins followed by [3H]2-deoxy-D-glucose addition measured after 4 to 6 mins; assay type: functional, cell-based
JJN-3 [6] = assay: Antiproliferative activity against human JJN-3 cells transfected with GLUT4 shRNA assessed as growth inhibition at 15 uM aftter 72 hrs by trypan blue dye-based cell counting analysis; assay type: functional
[7] = target: T3, Solute carrier family 2, facilitated glucose transporter member 1 (Homo sapiens, UniProt P11166); assay: Antagonist activity at human GLUT1 expressed in HEK293 cells transfected with GLUT1 shRNA assessed as inhibition of [3H]2-deoxy-D-glucose uptake preincubated for 5 mins followed by [3H]2-deoxy-D-glucose addition and measured after 6 mins; assay type: cell-based
T3 sequence (P11166 whole entry): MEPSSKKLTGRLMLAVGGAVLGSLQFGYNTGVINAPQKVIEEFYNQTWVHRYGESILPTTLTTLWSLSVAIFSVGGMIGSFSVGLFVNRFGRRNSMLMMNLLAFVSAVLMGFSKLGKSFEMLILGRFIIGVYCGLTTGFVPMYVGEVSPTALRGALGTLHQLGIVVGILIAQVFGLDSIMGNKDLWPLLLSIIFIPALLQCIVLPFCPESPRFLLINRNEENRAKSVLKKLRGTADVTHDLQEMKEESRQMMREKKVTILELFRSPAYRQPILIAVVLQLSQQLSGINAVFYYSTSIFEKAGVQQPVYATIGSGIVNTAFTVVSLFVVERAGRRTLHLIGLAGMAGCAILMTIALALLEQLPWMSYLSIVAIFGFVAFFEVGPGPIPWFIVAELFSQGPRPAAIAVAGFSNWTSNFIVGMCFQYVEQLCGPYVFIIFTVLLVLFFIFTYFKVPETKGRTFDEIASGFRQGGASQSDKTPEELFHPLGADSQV

[8] = target: T4, Solute carrier family 2, facilitated glucose transporter member 8 (Homo sapiens, UniProt Q9NY64); assay: Antagonist activity at human GLUT8 expressed in HEK293 cells transfected with GLUT1 shRNA assessed as inhibition of [3H]2-deoxy-D-glucose uptake preincubated for 5 mins followed by [3H]2-deoxy-D-glucose addition and measured after 6 mins; assay type: cell-based
T4 sequence (Q9NY64 whole entry): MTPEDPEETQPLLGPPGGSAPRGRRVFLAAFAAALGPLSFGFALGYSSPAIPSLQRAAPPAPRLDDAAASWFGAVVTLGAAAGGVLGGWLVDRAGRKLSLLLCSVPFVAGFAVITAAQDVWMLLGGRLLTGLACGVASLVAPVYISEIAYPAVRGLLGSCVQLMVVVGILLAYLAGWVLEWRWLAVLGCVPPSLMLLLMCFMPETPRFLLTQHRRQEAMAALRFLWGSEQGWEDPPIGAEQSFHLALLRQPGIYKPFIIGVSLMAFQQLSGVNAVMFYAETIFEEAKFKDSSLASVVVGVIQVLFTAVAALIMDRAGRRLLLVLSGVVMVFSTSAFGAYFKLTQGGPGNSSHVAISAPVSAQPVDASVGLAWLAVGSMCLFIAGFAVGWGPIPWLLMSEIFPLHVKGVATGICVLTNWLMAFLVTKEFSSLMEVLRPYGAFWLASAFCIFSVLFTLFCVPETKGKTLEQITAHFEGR

[9] = target: T5, GLUT1 (solute carrier family 2, facilitated glucose transporter member 1) (Rattus norvegicus, UniProt P11167); assay: Displacement of ATB-BMPA from rat C-terminal 6His/Myc-tagged GLUT1 expressed in HEK293 cell low density microsome assessed as ATB-BMPA binding level at 20 uM preincubated for 10 mins followed by ATB-BMPA addition measured after 10 mins relative to control; assay type: cell-based; settings: probe ATB-BMPA, read-out: Activity
T5 sequence (P11167 whole entry): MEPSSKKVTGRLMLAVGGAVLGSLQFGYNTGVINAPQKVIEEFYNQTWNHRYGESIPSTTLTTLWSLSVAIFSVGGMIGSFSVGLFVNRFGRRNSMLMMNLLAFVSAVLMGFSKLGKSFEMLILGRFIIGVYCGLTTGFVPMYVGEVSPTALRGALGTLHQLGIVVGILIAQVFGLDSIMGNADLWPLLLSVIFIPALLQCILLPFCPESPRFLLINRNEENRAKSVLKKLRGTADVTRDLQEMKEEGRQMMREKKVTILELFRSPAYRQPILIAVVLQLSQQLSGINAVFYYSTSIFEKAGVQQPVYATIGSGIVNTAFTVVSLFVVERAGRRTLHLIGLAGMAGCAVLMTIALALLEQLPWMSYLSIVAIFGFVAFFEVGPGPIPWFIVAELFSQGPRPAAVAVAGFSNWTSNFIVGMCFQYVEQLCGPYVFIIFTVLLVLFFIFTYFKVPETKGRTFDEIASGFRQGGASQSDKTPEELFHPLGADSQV

[10] = target: T6, Solute carrier family 2, facilitated glucose transporter member 4 (Rattus norvegicus) (UniProt P19357); assay: Displacement of ATB-BMPA from rat C-terminal 6His/Myc-tagged GLUT4 expressed in HEK293 cell low density microsome assessed as ATB-BMPA binding level at 20 uM preincubated for 10 mins followed by ATB-BMPA addition measured after 10 mins relative to control; assay type: cell-based
T6 sequence (whole entry): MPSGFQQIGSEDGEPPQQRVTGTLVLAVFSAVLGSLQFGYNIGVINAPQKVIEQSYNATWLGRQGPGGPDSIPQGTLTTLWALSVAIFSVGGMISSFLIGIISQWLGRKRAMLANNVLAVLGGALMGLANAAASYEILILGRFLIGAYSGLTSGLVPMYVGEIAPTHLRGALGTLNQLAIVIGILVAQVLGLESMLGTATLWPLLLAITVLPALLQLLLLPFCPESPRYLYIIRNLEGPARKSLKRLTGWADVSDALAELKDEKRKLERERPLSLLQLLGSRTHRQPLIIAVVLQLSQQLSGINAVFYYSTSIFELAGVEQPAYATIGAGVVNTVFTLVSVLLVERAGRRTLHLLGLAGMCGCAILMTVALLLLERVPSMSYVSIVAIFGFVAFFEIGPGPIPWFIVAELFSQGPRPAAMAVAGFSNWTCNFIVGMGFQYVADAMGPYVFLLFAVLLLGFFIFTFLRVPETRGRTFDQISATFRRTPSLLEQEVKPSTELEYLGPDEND

[11] = target: T2, Solute carrier family 2, facilitated glucose transporter member 4 (Homo sapiens); assay: Antagonist activity at GLUT4 in human L363 cells assessed as reduction in MCL-1 protein expression at 15 uM after 18 hrs by immunoblot analysis; assay type: cell-based
[12] = target: T2, Solute carrier family 2, facilitated glucose transporter member 4 (Homo sapiens); assay: Antagonist activity at GLUT4 in human JJN-3 cells assessed as reduction in MCL-1 protein expression at 15 uM after 18 hrs by immunoblot analysis; assay type: cell-based
[13] = target: T2, Solute carrier family 2, facilitated glucose transporter member 4 (Homo sapiens); assay: Antagonist activity at GLUT4 in human […] cells assessed as increase in sensitivity to ABT-199-induced cytotoxicity by measuring cell death at 10 uM after 72 hrs by CellTiter-Glo assay; assay type: cell-based
[14] = target: T2, Solute carrier family 2, facilitated glucose transporter member 4 (Homo sapiens); assay: Antagonist activity at GLUT4 in human JJN-3 cells assessed as increase in sensitivity to ABT-199-induced cytotoxicity by measuring cell death at 10 uM after 72 hrs by CellTiter-Glo assay; assay type: cell-based
[15] = target: T2, Solute carrier family 2, facilitated glucose transporter member 4 (Homo sapiens); assay: Antagonist activity at GLUT4 in multiple myeloma patient derived CD38+ and phyocerythrin-negative myeloma cells assessed as increase in sensitivity to ABT-199-induced cytotoxicity by measuring cell death at 10 uM after 48 hrs by CellTiter-Glo assay
[16] = target: T2, Solute carrier family 2, facilitated glucose transporter member 4 (Homo sapiens); assay: Antagonist activity at GLUT4 in human MM1S cells assessed as increase in sensitivity to dexamethasone-induced cytotoxicity by measuring cell death at 10 uM after 72 hrs by CellTiter-Glo assay; assay type: cell-based
[17] = target: T2, Solute carrier family 2, facilitated glucose transporter member 4 (Homo sapiens); assay: Antagonist activity at GLUT4 in multiple myeloma patient derived CD38+ and phyocerythrin-negative myeloma cells assessed as increase in sensitivity to dexamethasone-induced cytotoxicity by measuring cell death at 10 uM after 48 hrs by CellTiter-Glo assay
Bone marrow cell [18] = assay: Cytotoxicity in multiple myeloma patient derived CD38(-)/CD45(-) non-myeloma bone marrow cells at 10 uM in presence of ABT-199 incubated for 48 hrs by CellTiter-Glo assay; assay type: cell-based; settings: human
Bone marrow cell [19] = assay: Cytotoxicity in multiple myeloma patient derived CD38(-)/CD45(-) non-myeloma bone marrow cells at 10 uM in presence of dexamethasone incubated for 48 hrs by CellTiter-Glo assay; assay type: cell-based; settings: human
Bone marrow cell [20] = assay: Cytotoxicity in multiple myeloma patient derived CD38(-)/CD45(-) non-myeloma bone marrow cells at 10 uM incubated for 48 hrs by CellTiter-Glo assay; assay type: cell-based; settings: human
[21] = target: T2, Solute carrier family 2, facilitated glucose transporter member 4 (Homo sapiens); assay: Antagonist activity at GLUT4 in human MM1S cells assessed as increase in sensitivity to melphalan-induced cytotoxicity by measuring cell death at 10 uM after 72 hrs by CellTiter-Glo assay; assay type: cell-based

SMILES: COc1ccc(C(=O)N(Cc2ccncc2)Cc2cccc(OCC3CCCCC3)c2)cc1
- pIC50 (KMS-11 [1]): 4.71

SMILES: COc1ccc(C(=O)N(Cc2ccncc2)Cc2cccc(OCc3cccc([N+](=O)[O-])c3)c2)cc1
- pIC50 (KMS-11 [1]): 4.71

SMILES: COc1ccc(C(=O)N(Cc2ccncc2)Cc2cccc(OCCc3ccccc3)c2)cc1
- pIC50 (KMS-11 [1]): 4.77

SMILES: COc1ccc(C(=O)N(Cc2ccncc2)Cc2cccc(OCCc3cccc(C(F)(F)F)c3)c2)cc1
- pIC50 (KMS-11 [1]): 5.05

SMILES: O=C(c1ccc(Cl)cc1)N(Cc1ccncc1)Cc1cccc(OCCc2ccc(F)cc2)c1
- pIC50 (KMS-11 [1]): 4.88

- pIC50 [2]: 4.96
SMILES: COc1ccc(C(=O)N(Cc2ccncc2)Cc2cccc(OCc3cccc(OC)c3)c2)cc1
- pIC50 (KMS-11 [1]): 4.77

SMILES: COc1ccc(C(=O)N(Cc2ccncc2)Cc2cccc(OCc3ccc([N+](=O)[O-])cc3)c2)cc1
- pIC50 (KMS-11 [1]): 4.81

SMILES: COc1ccc(C(=O)N(Cc2ccncc2)Cc2cccc(OCCc3ccc(Br)cc3)c2)cc1
- pIC50 (KMS-11 [1]): 5.08

- inhibition [4]: Active
- pIC50 [7]: < 4.00
- pIC50 [8]: < 4.00
- activity at 10 min, 20 µM [9]: 35%
- Activity [10]: 64%
- inhibition [11]: Active
- inhibition [12]: inactive
SMILES: COc1ccc(CC(=O)N(Cc2ccncc2)Cc2cccc(OCCc3ccc(F)cc3)c2)cc1
- pIC50 (KMS-11 [1]): 4.87
- Activity (KMS-11 [3]): Active
- inhibition (JJN-3 [5]): Active
- Activity (JJN-3 [6]): inactive
- inhibition [13]: Active
- inhibition [14]: Active
- inhibition [15]: Active
- inhibition [16]: Active
- inhibition [17]: Active
- Activity (Bone marrow cell [18]): Non-Toxic
- Activity (Bone marrow cell [19]): Non-Toxic
- Activity (Bone marrow cell [20]): Non-Toxic
- Activity [21]: Active

SMILES: COc1ccc(C(=O)N(Cc2ccncc2)Cc2cccc(OCC(=O)c3ccc(Cl)cc3)c2)cc1
- pIC50 (KMS-11 [1]): 4.73
